# Experiments:
# Mu-type opioid receptor = Mu-type opioid receptor (Homo sapiens, UniProt P35372); assay: Binding affinity towards mu opioid receptor by the displacement of [125I]Enkephalin
# [1] = biological target: T1, Kappa-type opioid receptor (Homo sapiens, UniProt P41145); assay: Binding affinity towards kappa opioid receptor by the displacement of [125I]-(D-Pro10)-Dynorphin A
# [2] = biological target: Delta-type opioid receptor (Homo sapiens, UniProt P41143); assay: Binding affinity towards delta opioid receptor by the displacement of [125I]deltorphin
# [3] = biological target: T1, Kappa-type opioid receptor; assay: Functional activity in HEK293 cells overexpressing the human kappa opioid receptor was determined using a radiolabeled [35S]GTP-gamma-S, assay; format: cell-based
# T1 sequence (P41145 whole entry): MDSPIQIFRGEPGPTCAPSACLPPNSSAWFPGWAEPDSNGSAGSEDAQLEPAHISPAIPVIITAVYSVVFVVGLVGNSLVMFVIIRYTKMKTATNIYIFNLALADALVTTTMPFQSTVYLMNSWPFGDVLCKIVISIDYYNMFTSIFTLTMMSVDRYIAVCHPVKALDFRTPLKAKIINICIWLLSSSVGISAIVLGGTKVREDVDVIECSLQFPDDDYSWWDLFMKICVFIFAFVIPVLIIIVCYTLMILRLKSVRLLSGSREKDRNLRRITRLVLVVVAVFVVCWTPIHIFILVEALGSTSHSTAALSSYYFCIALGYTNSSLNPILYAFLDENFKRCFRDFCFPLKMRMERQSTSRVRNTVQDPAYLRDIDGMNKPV
# Chain of Mu-type opioid receptor (P35372 whole entry): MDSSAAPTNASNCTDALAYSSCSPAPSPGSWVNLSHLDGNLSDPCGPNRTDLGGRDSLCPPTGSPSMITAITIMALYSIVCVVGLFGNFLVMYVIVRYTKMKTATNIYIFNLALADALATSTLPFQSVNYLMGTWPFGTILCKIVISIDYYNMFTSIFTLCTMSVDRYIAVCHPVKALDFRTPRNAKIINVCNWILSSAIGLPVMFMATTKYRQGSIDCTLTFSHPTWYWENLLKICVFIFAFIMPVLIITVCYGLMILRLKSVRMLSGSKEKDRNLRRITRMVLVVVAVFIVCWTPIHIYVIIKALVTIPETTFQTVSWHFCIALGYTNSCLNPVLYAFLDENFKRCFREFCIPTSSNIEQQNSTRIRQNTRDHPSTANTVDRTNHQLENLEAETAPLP
# Chain of Delta-type opioid receptor (P41143 whole entry): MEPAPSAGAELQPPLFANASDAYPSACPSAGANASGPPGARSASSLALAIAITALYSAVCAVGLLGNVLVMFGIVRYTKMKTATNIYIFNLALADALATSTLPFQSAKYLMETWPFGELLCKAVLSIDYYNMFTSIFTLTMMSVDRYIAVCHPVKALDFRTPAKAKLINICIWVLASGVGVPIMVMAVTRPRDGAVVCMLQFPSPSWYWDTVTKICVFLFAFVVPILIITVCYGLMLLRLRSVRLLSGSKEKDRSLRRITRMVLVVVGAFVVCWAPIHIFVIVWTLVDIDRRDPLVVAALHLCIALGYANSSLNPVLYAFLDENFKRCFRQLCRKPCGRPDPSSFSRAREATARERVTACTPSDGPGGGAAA
SMILES,IC50 (Mu-type opioid receptor) [µM],IC50 [1] [µM],IC50 [2] [µM],ED50 [3] [µM]
Cc1cccc(-c2cccn(C(CN3CCCC3)c3ccccc3)c2=O)c1 (centres undefined),> 10,0.0793,0.639,
N#Cc1cccc(-c2cccn(C(CN3CCCC3)c3ccccc3)c2=O)c1 (centres undefined),4.28,0.0053,> 10,
O=c1c(-c2cccs2)cccn1C(CN1CCCC1)c1ccccc1 (centres undefined),,1.18,,
O=c1c(-c2cccc(Cl)c2)cccn1C(CN1CCCC1)c1ccccc1 (centres undefined),0.308,0.0024,> 10,
O=c1c(-c2ccc(Cl)c(Cl)c2)cccn1C(CN1CCCC1)c1ccccc1 (centres undefined),2.06,0.0023,> 10,
COc1ccccc1-c1cccn(C(CN2CCCC2)c2ccccc2)c1=O (centres undefined),1.2,0.0195,> 10,
O=c1c(-c2cc(F)ccc2F)cccn1C(CN1CCCC1)c1ccccc1 (centres undefined),> 10,0.0225,> 10,
O=c1c(-c2ccc3ccccc3c2)cccn1C(CN1CCCC1)c1ccccc1 (centres undefined),2.68,0.0319,> 10,
O=c1ccc(-c2ccc(Cl)c(Cl)c2)cn1C(CN1CCCC1)c1ccccc1 (centres undefined),,1.49,,
O=c1c(-c2ccccc2)cccn1C(CN1CCCC1)c1ccccc1 (centres undefined),> 10,0.0563,> 10,
O=c1ccc(-c2ccc(Cl)cc2)cn1C(CN1CCCC1)c1ccccc1 (centres undefined),,0.524,,
COc1ccc(OC)c(-c2cccn(C(CN3CCCC3)c3ccccc3)c2=O)c1 (centres undefined),> 5,0.00344,> 10,
COc1ccc(F)cc1-c1cccn(C(CN2CCCC2)c2ccccc2)c1=O (centres undefined),3.46,0.0034,4.35,
O=c1c(-c2ccc(Cl)cc2)cccn1C(CN1CCCC1)c1ccccc1 (centres undefined),4.84,0.0055,> 10,
COc1ccc(-c2cccn(C(CN3CCCC3)c3ccccc3)c2=O)cc1 (centres undefined),1.46,0.0494,5.21,
O=c1c(-c2cccc([N+](=O)[O-])c2)cccn1C(CN1CCCC1)c1ccccc1 (centres undefined),3.91,0.0022,> 10,
O=c1c(-c2cc3ccccc3o2)cccn1C(CN1CCCC1)c1ccccc1 (centres undefined),,0.271,,
O=c1c(-c2ccccc2C(F)(F)F)cccn1C(CN1CCCC1)c1ccccc1 (centres undefined),1.68,0.0057,> 10,
O=c1c(-c2ccc(OC(F)(F)F)cc2)cccn1C(CN1CCCC1)c1ccccc1 (centres undefined),1.1,0.0342,> 10,
O=c1c(-c2ccc(F)cc2)cccn1C(CN1CCCC1)c1ccccc1 (centres undefined),> 10,0.0348,> 10,
O=c1c(-c2ccc(C(F)(F)F)cc2)cccn1C(CN1CCCC1)c1ccccc1 (centres undefined),2.72,0.0087,> 10,0.0494
COc1ccc(Cl)cc1-c1cccn(C(CN2CCCC2)c2ccccc2)c1=O (centres undefined),1.24,0.0015,4.17,
